This passage reports IC50 results from patent US20240360178A1, “MACROCYCLIC IMMUNOMODULATORS” (Bristol-Myers Squibb Company, priority 2021, published 2024).

In the assay the target is T1, human PD-1 (Jurkat-PD-1 cells) / PE-labeled human PD-L1-Ig (Homo sapiens, UniProt Q15116).
T1 construct: expressed in transfected cells; host or cells: Jurkat cell line over-expressing human PD-1
The assay can be described thus: Jurkat-PD-1 Cell Binding High-Content Screening Assay (CBA); Jurkat hPD1-PDL1 assay. As to conditions: Jurkat cell line over-expressing human PD-1; PE-labeled PD-L1-Ig 20 nM final; compound incubated 2 hours at 37° C.; read-out: Jurkat HPD1-PDL1 IC50. In outline: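 Compound was added to Jurkat-PD-1 cells in DMEM plus 10% fetal calf serum and incubated 2 hours at 37° C. Binding of phycoerythrin-conjugated PD-L1-Ig (20 nM final) to the cells was imaged.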

Positions of bridges follow the written chain, without caps; N, C: chain ends. Non-standard residues stand in square brackets, D forms with d. Residues, ends and D or L forms follow the SMILES beside them. ξ: configuration not given here. *: point of attachment. Bip = N[C@@H](Cc1ccc(-c2ccccc2)cc1)C(=O)O; Phe(3-OMe) = COc1cccc(C[C@H](N)C(=O)O)c1; Phe(3-Me) = Cc1cccc(C[C@H](N)C(=O)O)c1; Val(3-OH) = CC(C)(O)[C@H](N)C(=O)O; NMeF = CN[C@@H](Cc1ccccc1)C(=O)O; 3Pal = N[C@@H](Cc1cccnc1)C(=O)O; 4Pal = N[C@@H](Cc1ccncc1)C(=O)O; Cha = N[C@@H](CC1CCCCC1)C(=O)O; Thr(3ξ) = CC(O)[C@H](N)C(=O)O; dPip = O=C(O)[C@H]1CCCCN1; Carboxymethyl = O=C(O)C*; NMeA = CN[C@@H](C)C(=O)O; Dab = NCC[C@H](N)C(=O)O; Sar = CNCC(=O)O

T1 sequence (Q15116 25-288): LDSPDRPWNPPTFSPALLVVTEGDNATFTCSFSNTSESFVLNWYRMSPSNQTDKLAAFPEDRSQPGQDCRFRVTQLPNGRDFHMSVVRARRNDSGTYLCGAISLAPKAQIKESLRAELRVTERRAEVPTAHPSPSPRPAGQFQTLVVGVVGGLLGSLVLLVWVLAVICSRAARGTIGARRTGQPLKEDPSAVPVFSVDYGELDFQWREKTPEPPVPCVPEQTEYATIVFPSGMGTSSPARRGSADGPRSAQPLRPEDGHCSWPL

What is called IC50 is the concentration that inhibits the measured activity by half. Turning to `CC(C)C[C@@H]1NC(=O)[C@H](CCN)NC(=O)[C@H](Cc2ccccc2)N(C)C(=O)[C@H](C)N(C)C(=O)[C@H](CCCNC(=N)N)NC(=O)[C@H](Cc2ccc(-c3ccccc3)cc2)NC(=O)[C@H](C(C)C)NC(=O)[C@H](Cc2c[nH]c3ccccc23)NC(=O)[C@H](CC(=O)O)NC(=O)[C@H](Cc2ccc(O)cc2)NC(=O)[C@H](Cc2cnc[nH]2)NC(=O)CSC[C@@H](C(=O)NCC(N)=O)NC(=O)[C@H](CO)NC(=O)[C@H](C(C)C)NC1=O` [Example 1314] ({CH2CO}-HYDWV[Bip]R[NMeA][NMeF][Dab]LVSCG-NH2; thioether N-14), the IC50 is 90 nM.
`CC(C)C[C@@H]1NC(=O)[C@H](CCCNC(=N)N)NC(=O)[C@H](Cc2ccccc2)N(C)C(=O)[C@H](C)N(C)C(=O)[C@H](CCCNC(=N)N)NC(=O)[C@H](Cc2ccc(-c3ccccc3)cc2)NC(=O)[C@H](C(C)C)NC(=O)[C@H](Cc2c[nH]c3ccccc23)NC(=O)[C@H](CC(=O)O)NC(=O)[C@H](Cc2ccc(O)cc2)NC(=O)[C@H](Cc2ccccc2)NC(=O)CSC[C@@H](C(=O)N[C@H](C(N)=O)C(C)O)NC(=O)[C@H](CO)NC(=O)[C@H](C(C)C)NC1=O` (some centres unmarked) [Example 1063] ({CH2CO}-FYDWV[Bip]R[NMeA][NMeF]RLVSC[Thr(3ξ)]-NH2; thioether N-14): the IC50 was 160 nM.
The figure for `CC(C)C[C@@H]1NC(=O)[C@H](CCCNC(=N)N)NC(=O)[C@H](Cc2ccccc2)N(C)C(=O)[C@H](C)N(C)C(=O)[C@H](CCCNC(=N)N)NC(=O)[C@H](Cc2ccc(-c3ccccc3)cc2)NC(=O)[C@H](C(C)C)NC(=O)[C@H](Cc2c[nH]c3ccccc23)NC(=O)[C@H](CC(=O)O)NC(=O)[C@H](Cc2ccc(OCC(=O)O)cc2)NC(=O)[C@H](Cc2ccccc2)NC(=O)CSC[C@@H](C(=O)NCC(N)=O)NC(=O)[C@H](CO)NC(=O)[C@H](C(C)C)NC1=O` [Example 1275] ({CH2CO}-FY(Carboxymethyl)DWV[Bip]R[NMeA][NMeF]RLVSCG-NH2; thioether N-14) is 30 nM.
Take `CC(C)C[C@@H]1NC(=O)[C@H](Cc2c[nH]c3ccccc23)NC(=O)[C@H](CC(=O)O)NC(=O)[C@H](Cc2ccncc2)NC(=O)[C@H](Cc2ccc(OCC(=O)O)cc2)NC(=O)CSC[C@@H](C(=O)N[C@@H](C)C(N)=O)NC(=O)[C@H](CO)NC(=O)[C@H](C(C)C)NC(=O)[C@H](CC(C)C)NC(=O)[C@H](CC(N)=O)NC(=O)[C@H]2CCCN2C(=O)[C@H](C)N(C)C(=O)[C@H](C(C)C)NC(=O)[C@H](Cc2ccc(-c3ccccc3)cc2)NC1=O` [Example 1435] ({CH2CO}-Y(Carboxymethyl)[4Pal]DWL[Bip]V[NMeA][dP]NLVSCA-NH2; thioether N-14): the IC50 is 90 nM.
The result for `CC(C)C[C@@H]1NC(=O)[C@H](CC(N)=O)NC(=O)CN(C)C(=O)[C@H](C)N(C)C(=O)[C@H](C(C)C)NC(=O)[C@H](Cc2ccc(-c3ccccc3)cc2)NC(=O)[C@H](C(C)C)NC(=O)[C@H](Cc2c[nH]c3ccccc23)NC(=O)[C@H](CC(=O)O)NC(=O)[C@H](Cc2ccc(O)cc2)NC(=O)[C@H](Cc2ccccc2)NC(=O)CSC[C@@H](C(=O)N[C@@H](C)C(N)=O)NC(=O)[C@H](CO)NC(=O)[C@H](C(C)C)NC1=O` [Example 1149] ({CH2CO}-FYDWV[Bip]V[NMeA][Sar]NLVSCA-NH2; thioether N-14) reads 690 nM; that for `CC(C)C[C@@H]1NC(=O)[C@H](Cc2c[nH]c3ccccc23)NC(=O)[C@H](CC(=O)O)NC(=O)[C@H](Cc2ccc(O)cc2)NC(=O)[C@H](Cc2ccccc2)NC(=O)CSC[C@@H](C(=O)NCC(N)=O)NC(=O)[C@H](CO)NC(=O)[C@H](C(C)C)NC(=O)[C@H](CC(C)C)NC(=O)[C@H](CC(N)=O)NC(=O)[C@H](Cc2ccccc2)N(C)C(=O)[C@H](C)N(C)C(=O)[C@H](C(C)C)NC(=O)[C@H](Cc2ccc(-c3ccccc3)cc2)NC1=O` [Example 1205] ({CH2CO}-FYDWL[Bip]V[NMeA][NMeF]NLVSCG-NH2; thioether N-14), 440 nM; that for `CC(C)C[C@@H]1NC(=O)[C@H](Cc2c[nH]c3ccccc23)NC(=O)[C@H](CC(=O)O)NC(=O)[C@H](Cc2ccc(O)cc2)NC(=O)[C@H](Cc2ccccc2)NC(=O)CSC[C@@H](C(=O)N[C@@H](C)C(N)=O)NC(=O)[C@H](CO)NC(=O)[C@H](C(C)C)NC(=O)[C@H](CC(C)C)NC(=O)[C@H](CC(N)=O)NC(=O)[C@H]2CCCN2C(=O)[C@H](C)N(C)C(=O)[C@H](CCCNC(=N)N)NC(=O)[C@H](Cc2ccc(-c3ccccc3)cc2)NC1=O` [Example 1027] ({CH2CO}-FYDWL[Bip]R[NMeA][dP]NLVSCA-NH2; thioether N-14), 50 nM.
The figure for `CC(C)C[C@@H]1NC(=O)[C@H](C)NC(=O)[C@H](Cc2ccccc2)N(C)C(=O)[C@H](C)N(C)C(=O)[C@H](CCCNC(=N)N)NC(=O)[C@H](Cc2ccc(-c3ccccc3)cc2)NC(=O)[C@H](C(C)C)NC(=O)[C@H](Cc2c[nH]c3ccccc23)NC(=O)[C@H](CC(=O)O)NC(=O)[C@H](Cc2ccc(O)cc2)NC(=O)[C@H](Cc2ccccc2)NC(=O)CSC[C@@H](C(=O)NCC(N)=O)NC(=O)[C@H](CO)NC(=O)[C@H](C(C)C)NC1=O` [Example 1209] ({CH2CO}-FYDWV[Bip]R[NMeA][NMeF]ALVSCG-NH2; thioether N-14) is 780 nM.
The result for `COc1cccc(C[C@@H]2NC(=O)[C@H](CC(=O)O)NC(=O)[C@H](Cc3ccc(O)cc3)NC(=O)[C@H](Cc3ccccc3)NC(=O)CSC[C@@H](C(=O)N[C@@H](C)C(N)=O)NC(=O)[C@H](CO)NC(=O)[C@H](C(C)C)NC(=O)[C@H](CC(C)C)NC(=O)[C@H](CC(N)=O)NC(=O)CN(C)C(=O)[C@H](C)N(C)C(=O)[C@H](C(C)C)NC(=O)[C@H](Cc3ccc(-c4ccccc4)cc3)NC(=O)[C@H](CC(C)C)NC2=O)c1` [Example 1106] ({CH2CO}-FYD[Phe(3-OMe)]L[Bip]V[NMeA][Sar]NLVSCA-NH2; thioether N-14) reads 330 nM; that for `CC(C)C[C@@H]1NC(=O)[C@H](CCCNC(=N)N)NC(=O)[C@H](Cc2ccccc2)N(C)C(=O)[C@H](C)N(C)C(=O)[C@H](CCCNC(=N)N)NC(=O)[C@H](Cc2ccc(-c3ccccc3)cc2)NC(=O)[C@H](C(C)C)NC(=O)[C@H](Cc2c[nH]c3ccccc23)NC(=O)[C@H](CC(=O)O)NC(=O)[C@H](Cc2ccc(O)cc2)NC(=O)[C@H](CCC(N)=O)NC(=O)CSC[C@@H](C(=O)N[C@@H](C)C(N)=O)NC(=O)[C@H](CO)NC(=O)[C@H](C(C)C)NC1=O` [Example 1296] ({CH2CO}-QYDWV[Bip]R[NMeA][NMeF]RLVSCA-NH2; thioether N-14), 140 nM; that for `CC(C)C[C@@H]1NC(=O)[C@H](CCN)NC(=O)[C@H](Cc2ccccc2)N(C)C(=O)[C@H](C)N(C)C(=O)[C@H](CCCNC(=N)N)NC(=O)[C@H](Cc2ccc(-c3ccccc3)cc2)NC(=O)[C@H](C(C)C)NC(=O)[C@H](Cc2c[nH]c3ccccc23)NC(=O)[C@H](CC(=O)O)NC(=O)[C@H](Cc2ccc(O)cc2)NC(=O)[C@H](Cc2ccccc2)NC(=O)CSC[C@@H](C(=O)N[C@@H](C)C(N)=O)NC(=O)[C@H](CO)NC(=O)[C@H](C(C)C)NC1=O` [Example 1304] ({CH2CO}-FYDWV[Bip]R[NMeA][NMeF][Dab]LVSCA-NH2; thioether N-14), 60 nM.
Turning to `CC(C)C[C@@H]1NC(=O)[C@H](Cc2c[nH]c3ccccc23)NC(=O)[C@H](CC(=O)O)NC(=O)[C@H](Cc2ccc(O)cc2)NC(=O)[C@H](Cc2ccccc2)NC(=O)CSC[C@@H](C(=O)N[C@@H](C)C(N)=O)NC(=O)[C@H](CO)NC(=O)[C@H](C(C)C)NC(=O)[C@H](CC(C)C)NC(=O)[C@H](CC(N)=O)NC(=O)[C@H](Cc2ccccc2)N(C)C(=O)[C@H](C)N(C)C(=O)[C@H](C(C)C)NC(=O)[C@H](Cc2ccc(-c3ccccc3)cc2)NC1=O` [Example 1060] ({CH2CO}-FYDWL[Bip]V[NMeA][NMeF]NLVSCA-NH2; thioether N-14), the 50% inhibitory concentration (IC50) worked out at 140 nM.
The figure for `Cc1cccc(C[C@@H]2NC(=O)[C@H](CC(=O)O)NC(=O)[C@H](Cc3ccc(OCC(=O)O)cc3)NC(=O)[C@H](CCCNC(=N)N)NC(=O)CSC[C@@H](C(=O)N[C@@H](CCN)C(N)=O)NC(=O)[C@H](CO)NC(=O)[C@H](C(C)(C)O)NC(=O)[C@H](CC3CCCCC3)NC(=O)[C@H](CCN)NC(=O)[C@H]3CCCCN3C(=O)[C@H]3CCCN3C(=O)[C@H](Cc3ccc(OCC(=O)O)cc3)NC(=O)[C@H](Cc3ccc(-c4ccccc4)cc3)NC(=O)[C@H](Cc3ccc(OCC(=O)O)cc3)NC2=O)c1` [Example 1190] ({CH2CO}-RY(Carboxymethyl)D[Phe(3-Me)]Y(Carboxymethyl)[Bip]Y(Carboxymethyl)[dP][dPip][Dab][Cha][Val(3-OH)]SC[Dab]-NH2; thioether N-14) is 550 nM; for `CC(C)C[C@@H]1NC(=O)[C@H](Cc2c[nH]c3ccccc23)NC(=O)[C@H](CC(=O)O)NC(=O)[C@H](Cc2cccnc2)NC(=O)[C@H](Cc2ccccc2)NC(=O)CSC[C@@H](C(=O)N[C@@H](C)C(N)=O)NC(=O)[C@H](CO)NC(=O)[C@H](C(C)C)NC(=O)[C@H](CC(C)C)NC(=O)[C@H](CC(N)=O)NC(=O)CN(C)C(=O)[C@H](C)N(C)C(=O)[C@H](C(C)C)NC(=O)[C@H](Cc2ccc(-c3ccccc3)cc2)NC1=O` [Example 1080] ({CH2CO}-F[3Pal]DWL[Bip]V[NMeA][Sar]NLVSCA-NH2; thioether N-14) it is 230 nM.
